In patent publication US8410128B2, “Triazolopyridine compounds useful as kinase inhibitors” (Bristol-Myers Squibb Company, priority 2008, dated 2013):

Target: T1, p38 (Homo sapiens, UniProt Q16539)
T1 construct: GST (N); made in house; host or cells: E. coli
Assay: p38 Assay (33P-ATP/MBP filter kinase assay)
Assay type: biochemical
Conditions: bacterially expressed, activated p38 10 nM; ATP 1 μM; MBP substrate; 25° C., 45 min
Experimental: Generation of p38 Kinases
For this assay, cDNAs of human p38α, β, and γ isozymes were cloned by PCR. These cDNAs were subcloned in the pGEX expression vector (Pharmacia). GST-p38 fusion protein was expressed in E. Coli and purified from bacterial pellets by affinity chromatography using glutathione agarose. p38 fusion protein was activated by incubating with constitutively active MKK6. Active p38 was separated from MKK6 by affinity chromatography. Constitutively active MKK6 was generated according to Raingeaud et al. (Mol. Cell. Biol., 1247-1255 (1996)).
The assays were performed in V-bottomed 96-well plates. The final assay volume was 60 μl prepared from three 20 μl additions of enzyme, substrates (MBP and ATP) and test compounds in assay buffer (50 mM Tris pH 7.5, 10 mM MgCl2, 50 mM NaCl and 1 mM DTT). Bacterially expressed, activated p38 was pre-incubated with test compounds for 10 min. prior to initiation of reaction with substrates. The reaction was incubated at 25° C. for 45 min. and terminated by adding 5 μl of 0.5 M EDTA to each sample. […] The filtermat was then dried in a microwave oven for 1 min., treated with MELTILEX® A scintillation wax (Wallac), and counted on a MICROBETA® scintillation counter Model 1450 (Wallac). Inhibition data were analyzed by nonlinear least-squares regression using PRIZM® (GraphPadSoftware). […]

T1 sequence (Q16539 whole entry): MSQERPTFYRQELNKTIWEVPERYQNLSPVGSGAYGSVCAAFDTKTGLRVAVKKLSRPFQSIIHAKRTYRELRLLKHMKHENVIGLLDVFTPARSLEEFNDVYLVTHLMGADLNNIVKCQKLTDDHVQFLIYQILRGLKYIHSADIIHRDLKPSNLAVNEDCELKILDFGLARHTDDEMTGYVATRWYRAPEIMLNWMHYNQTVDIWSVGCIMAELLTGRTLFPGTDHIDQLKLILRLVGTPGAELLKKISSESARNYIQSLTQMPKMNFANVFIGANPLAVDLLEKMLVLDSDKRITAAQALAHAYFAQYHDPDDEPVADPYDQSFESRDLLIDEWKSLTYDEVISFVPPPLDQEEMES

`CC(C)Nc1ncc(-c2ccc3nncn3c2)s1` [Example 12] gave an IC50 of 581 nM.
